# Reference: patent publication US20060128014A1, “Compositions and methods for culturing stem cells” (priority 2002, published 2006)
# Where no end group is shown, it is not given here.
# What was measured:
# hippocampal CA1 region = settings: cited from earlier work; for delayed neuronal death in the hippocampal CA1 region: transient forebrain ischemia
# adult neural stem cells = experiment: Intracellular ATP assay (ViaLight kit) on cultured adult neural stem cells; assay type: cell-based, mice; settings: for maximal amplitudes of responses: vanadate and EGF each added alone, compared
# Method: Neurosphere cultures: The anterior lateral wall of the lateral ventricle of 5-6 week old mice was enzymatically dissociated in 0.8 mg/ml hyaluronidase and 0.5 mg/ml trypsin in DMEM containing 4.5 mg/ml glucose and 80 units/ml DNase at 37° C. for 20 min. The cells were gently triturated and mixed with three volumes of Neurosphere medium (DMEM/F12, B27 supplement, 125 mM HEPES pH7.4) containing 20 ng/ml EGF (unless otherwise stated), 100 units/ml penicillin and 100 _g/ml streptomycin. After passing through a 70 _m strainer, the cells were pelleted at 160×g for 5 min. The supernatant was subsequently removed and the cells resuspended in Neurosphere medium supplemented as above, plated out in culture dishes and incubated at 37° C. Neurospheres were ready to be split approximately 7 days after plating.
# To split the neurospheres, they were collected by centrifugation at 160×g for 5 min. The conditioned supernatant (conditioned medium) was removed and saved. The neurospheres were resuspended in 0.5 ml Trypsin/EDTA in HBSS (1×), incubated at 37° C. for 2 min and triturated gently to aid dissociation. Following a further 3 min incubation at 37° C. and trituration, 3 volumes of ice cold NSPH-media-EGF were added to stop further trypsin activity. The cells were pelleted at 220×g for 4 min, and resuspended in a 1:1 mixture of fresh Neurosphere medium and conditioned medium. EGF was supplemented to 20 ng/ml and the culture plated out and incubated at 37° C.
# Where stated, a minimal Neurosphere medium was used containing BIT supplement in place of B27 supplement.
# Neurosphere assays: NSC, cultured as described above, from passage 2 were seeded in DMEM/F12 supplemented with B27 into a 96-well plate as single cells (10000 cells/well), to which agents were added at the concentrations indicated.
# After 3 days of treatment, intracelluar ATP was measured using the ViaLight kit (BioWhittaker) according to the manufacturer's instructions.
# neural stem cells = experiment: Sphere formation in presence of vanadate and in combination with PACAP; assay type: cell-based; settings: DMEM/F12 with B27, after 7 days
# Method: Cells were isolated as described (see section 5.5.1). Aliquots of 1 ml cell suspension per well equivalent to one brain per well were plated in DMEM/F12 supplemented with B27.
# 10 uM Vanadate or 10 uM Vanadate +300 nM PACAP was added to the cultures. Fresh substances were added every second day. After 7 days sphereformation was observed.
# human neural stem cells = experiment: Neurosphere formation of human neural stem cells; assay type: cell-based
# Method: Culture of human neural stem cells: Human neural stem cells were isolated and cultured under adherent conditions according to the protocol described in Palmer et al., 2001, Nature 411(6833):42-43, modified to exclude the additives PDGF and cystatinC and using B27 supplement instead of BIT. The cells were cultured for 10-16 passages in DMEM/F12 with B27-supplement and EGF (20 ng/ml) and FGF-2 (20 ng/ml). Cells were detached with Trypsin/EDTA, rinsed three times and then replated in suspension culture plastic wells in DMEM/F12 and B27-supplement for 24 h without growth factors. Thereafter factors (Vanadate, EGF or EGF+FGF2) were added for one day.
# [1] = cited from earlier work
# [2] = experimental animals; cited from earlier work
# [3] = tested on: adult derived neural stem cells; experiment: Proliferation of adult derived neural stem cells by increased cAMP (unpublished results); assay type: cell-based; settings: increased levels of cAMP
molecule,measurement,setting,value
IGF-1: insulinlike growth factor-1,delayed neuronal death in the hippocampal CA1 region,hippocampal CA1 region,rescued cells from delayed neuronal death
[O]=[V]([O-])([O-])[O-] [vanadate],proliferative effect (intracellular ATP levels),"adult neural stem cells; added alone, growth media supplemented with BIT or B27, 3 days of treatment, FIG. 1",concentration dependent proliferative effect
same,ATP-levels with EGF and increasing concentrations of vanadate,"adult neural stem cells; in addition to EGF (3 nM), FIG. 7",not significantly altered
same,proliferative effect in combination with EGF,"adult neural stem cells; in the presence of EGF, supplement BIT or B27, FIGS. 2 and 3",additive
same,proliferative effect in combination with PACAP,"adult neural stem cells; in the presence of PACAP, supplement BIT or B27, FIGS. 4, 5",additive
same,maximal amplitudes of responses,adult neural stem cells; FIGS. 2 and 3,equal in size
same,sphere formation,"neural stem cells; 10 uM Vanadate + 300 nM PACAP, FIG. 6b",Sphereforming capacity was noted
same,sphere formation,"neural stem cells; 10 uM Vanadate alone, FIG. 6a",Sphereforming capacity was noted
same,sphere formation,"human neural stem cells; 10 uM, after 1 d, DMEM/F12 and B27-supplement, FIG. 8a",formed numerous spheres
same,adherence of the spheres,"human neural stem cells; 10 uM, after 1 d, FIG. 8a",virtually all spheres were free floating
same,tolerability in humans,[1]; humans,tolerated
same,effect in patients suffering from diabetes,[1]; patients suffering from diabetes,positive results
same,blood glucose levels,[2],reduces blood glucose levels
same,neuroprotection,hippocampal CA1 region; experimental animals,neuroprotective
FGF-2: protein growth factor,neurosphere formation with growth factors,"human neural stem cells; growth factors added for one day, FIG. 8b and 8c",reduced neurosphere formation
[Na+].[O]=[V](=[O])[O-] [NaVO3],most common adverse effect,[1]; oral,mild gastrointestinal intolerance
COc1ccc(C2CNC(=O)C2)cc1OC1CCCC1 (centres unmarked) [rolipram],proliferation,[3],trigger proliferation
[Na+].[Na+].[Na+].[O]=[V]([O-])([O-])[O-] [sodium orthovanadate],delayed neuronal death in the hippocampal CA1 region,hippocampal CA1 region,rescued cells from delayed neuronal death
"EGF: epidermal growth factor, protein growth factor",maximal amplitudes of responses,adult neural stem cells; FIGS. 2 and 3,equal in size
"PACAP: neuropeptide acting on cyclase activating GPCRs (HSDGIFTDSYSRYRKQMAVKKYLAAVLGKRYKQRVKNK; ends and bridges not checked; UniProt P18509 132-169, looked up)",proliferation,[3],trigger proliferation
